Results published in patent US20250129104A1, “7H-PYRROLO[2,3-D]PYRIMIDINES AND PREPARATION AND USES THEREOF” (BioSplice Therapeutics, Inc., priority 2021, published 2025).

Biological target: recombinant DYRK1A kinase (Homo sapiens (Human), UniProt Q13627)
Assay: DYRK1A kinase assay (Ser/Thr 18 peptide Z-lyte FRET assay)
Assay type: biochemical
Conditions: DYRK1A kinase activity; 15 μM ATP, 1 h room temperature; method text calls the value IC50
Procedure, shortened: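 FRET Z-lyte read-out (coumarin/fluorescein ratio, % phosphorylation) after 1 h development; IC50 from non-linear curve fit. Reaction: 0.25 μg/mL recombinant human DYRK1A, Ser/Thr 18 peptide 4 μM, ATP 15 μM, compound in 11-point 1:3 series from 10 μM, 1 h, room temperature, duplicate wells.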

Structure (SMILES)	EC50
COc1nc(N[C@H]2CC[C@@H](OC)CC2)nc2[nH]cc(-c3ccn4nccc4c3)c12 [Compound 2306, 4-Methoxy-N-(cis-4-methoxycyclohexyl)-5-(pyrazolo[1,5-a]pyridin-5-yl)-7H-pyrrolo[2,3-d]pyrimidin-2-amine]	171 nM
COc1nc(N[C@H]2CC[C@H](OC(F)F)CC2)nc2[nH]cc(-c3ccn4nccc4c3)c12 [Compound 2308, N-(trans-4-(Difluoromethoxy)cyclohexyl)-4-methoxy-5-(pyrazolo[1,5-a]pyridin-5-yl)-7H-pyrrolo[2,3-d]pyrimidin-2-amine]	462 nM
COc1nc(N[C@@H]2CCCOC2)nc2[nH]cc(-c3ccn4nccc4c3)c12 [Compound 2314, (R)-4-Methoxy-5-(pyrazolo[1,5-a]pyridin-5-yl)-N-(tetrahydro-2H-pyran-3-yl)-7H-pyrrolo[2,3-d]pyrimidin-2-amine]	17.3 nM
COc1nc(N[C@H]2CCCOC2)nc2[nH]cc(-c3ccn4nccc4c3)c12 [Compound 2315, (S)-4-Methoxy-5-(pyrazolo[1,5-a]pyridin-5-yl)-N-(tetrahydro-2H-pyran-3-yl)-7H-pyrrolo[2,3-d]pyrimidin-2-amine]	120 nM
COc1nc(N[C@@H]2CCOC[C@H]2F)nc2[nH]cc(-c3ccn4nccc4c3)c12 [Compound 2316, N-((3S,4R)-3-Fluorotetrahydro-2H-pyran-4-yl)-4-methoxy-5-(pyrazolo[1,5-a]pyridin-5-yl)-7H-pyrrolo[2,3-d]pyrimidin-2-amine]	160 nM
COc1nc(N[C@@H]2CCOC[C@@H]2F)nc2[nH]cc(-c3ccn4nccc4c3)c12 [Compound 2317, N-((3R,4R)-3-Fluorotetrahydro-2H-pyran-4-yl)-4-methoxy-5-(pyrazolo[1,5-a]pyridin-5-yl)-7H-pyrrolo[2,3-d]pyrimidin-2-amine]	107 nM
COc1nc(N[C@@H]2CCOC[C@H]2O)nc2[nH]cc(-c3ccn4nccc4c3)c12 [Compound 2318, (3S,4R)-4-((4-Methoxy-5-(pyrazolo[1,5-a]pyridin-5-yl)-7H-pyrrolo[2,3-d]pyrimidin-2-yl)amino)tetrahydro-2H-pyran-3-ol]	12.9 nM
COc1nc(N[C@@H]2CCOC[C@H]2OC)nc2[nH]cc(-c3ccn4nccc4c3)c12 [Compound 2319, 4-Methoxy-N-((3S,4R)-3-methoxytetrahydro-2H-pyran-4-yl)-5-(pyrazolo [1,5-a]pyridin-5-yl)-7H-pyrrolo[2,3-d]pyrimidin-2-amine]	287 nM
CC(C)Oc1nc(N[C@H]2CC[C@@](C)(O)CC2)nc2[nH]cc(-c3ccn4nccc4c3)c12 [Compound 2320, cis-4-((4-Isopropoxy-5-(pyrazolo[1,5-a]pyridin-5-yl)-7H-pyrrolo[2,3-d]pyrimidin-2-yl)amino)-1-methylcyclohexan-1-ol]	59.4 nM
COc1nc(NC2[C@H]3COC[C@@H]23)nc2[nH]cc(-c3ccn4nccc4c3)c12 (stereo partly drawn) [Compound 2323, N-((1R,5S,6r)-3-Oxabicyclo[3.1.0]hexan-6-yl)-4-methoxy-5-(pyrazolo[1,5-a]pyridin-5-yl)-7H-pyrrolo[2,3-d]pyrimidin-2-amine]	0.9 nM
COc1nc(N[C@@H]2[C@@H]3COC[C@@H]32)nc2[nH]cc(-c3ccn4nccc4c3)c12 [Compound 2324, N-((1R,5S,6s)-3-oxabicyclo[3.1.0]hexan-6-yl)-4-methoxy-5-(pyrazolo [1,5-a]pyridin-5-yl)-7H-pyrrolo[2,3-d]pyrimidin-2-amine]	1.5 nM
COc1nc(NCC(C)(C)F)nc2[nH]cc(-c3ccn4nccc4n3)c12 [Compound 2325, N-(2-Fluoro-2-methylpropyl)-4-methoxy-5-(pyrazolo[1,5-a]pyrimidin-5-yl)-7H-pyrrolo[2,3-d]pyrimidin-2-amine]	87 nM
C[C@]1(O)CC[C@@H](Nc2ncc3c(-c4ccc5nccn5c4)c[nH]c3n2)CC1 [Compound 2349, cis-4-((5-(Imidazo[1,2-a]pyridin-6-yl)-7H-pyrrolo[2,3-d]pyrimidin-2-yl)amino)-1-methylcyclohexan-1-ol]	1.3 nM
COc1nc(N[C@H]2CC[C@](C)(O)CC2)nc2[nH]cc(-c3ccc4nccn4c3)c12 [Compound 2378, trans-4-((5-(Imidazo[1,2-a]pyridin-6-yl)-4-methoxy-7H-pyrrolo[2,3-d]pyrimidin-2-yl)amino)-1-methylcyclohexan-1-ol]	1.1 nM
COc1nc(N[C@H]2CC[C@](C)(O)CC2)nc2[nH]cc(-c3cc(F)c4nccn4c3)c12 [Compound 2494, trans-4-((5-(8-Fluoroimidazo[1,2-a]pyridin-6-yl)-4-methoxy-7H-pyrrolo[2,3-d]pyrimidin-2-yl)amino)-1-methylcyclohexan-1-ol]	1.1 nM
C[C@]1(O)CC[C@@H](Nc2ncc3c(-c4ccc5ncnn5c4)c[nH]c3n2)CC1 [Compound 3018, (1s,4s)-4-((5-([1,2,4]Triazolo[1,5-a]pyridin-6-yl)-7H-pyrrolo[2,3-d]pyrimidin-2-yl)amino)-1-methylcyclohexan-1-ol]	4.4 nM
COc1nc(N[C@H]2CC[C@@H](OC)CC2)nc2[nH]cc(-c3ccc4ncnn4c3)c12 [Compound 3047, 5-([1,2,4]Triazolo[1,5-a]pyridin-6-yl)-4-methoxy-N-(cis-4-methoxycyclohexyl)-7H-pyrrolo[2,3-d]pyrimidin-2-amine]	1.2 nM
[2H]C([2H])([2H])Oc1nc(N[C@H]2CC[C@@H](OC)CC2)nc2[nH]cc(-c3ccc4nnn(C)c4c3)c12 [Compound 3115, 4-(Methoxy-d3)—N-(cis-4-methoxycyclohexyl)-5-(1-methyl-1H-benzo[d][1,2,3]triazol-6-yl)-7H-pyrrolo[2,3-d]pyrimidin-2-amine]	1.3 nM
COc1nc(N[C@H]2CC[C@](C)(O)CC2)nc2[nH]cc(-c3ccc4nnn(C)c4c3)c12 [Compound 3119, trans-4-((4-Methoxy-5-(1-methyl-1H-benzo[d][1,2,3]triazol-6-yl)-7H-pyrrolo[2,3-d]pyrimidin-2-yl)amino)-1-methylcyclohexan-1-ol]	0.2 nM
COc1nc(N[C@H]2CC[C@@](C)(O)CC2)nc2[nH]cc(-c3ccc4nnn(C)c4c3)c12 [Compound 3120, cis-4-((4-Methoxy-5-(1-methyl-1H-benzo[d][1,2,3]triazol-6-yl)-7H-pyrrolo[2,3-d]pyrimidin-2-yl)amino)-1-methylcyclohexan-1-ol]	4.2 nM
COc1nc(N[C@@H]2[C@@H]3COC[C@@H]32)nc2[nH]cc(-c3ccc4nnn(C)c4c3)c12 [Compound 3127, N-((1R,5S,6s)-3-Oxabicyclo[3.1.0]hexan-6-yl)-4-methoxy-5-(1-methyl-1H-benzo[d][1,2,3]triazol-6-yl)-7H-pyrrolo[2,3-d]pyrimidin-2-amine]	1.4 nM
COc1nc(N[C@@H]2[C@@H]3COC[C@@H]32)nc2[nH]cc(-c3ccc4nnn(C)c4c3)c12 [Compound 3128, N-((1R,5S,6r)-3-Oxabicyclo[3.1.0]hexan-6-yl)-4-methoxy-5-(1-methyl-1H-benzo[d][1,2,3]triazol-6-yl)-7H-pyrrolo[2,3-d]pyrimidin-2-amine]	0.6 nM
COc1nc(NC2CCC3(CC2)COC3)nc2[nH]cc(-c3ccc4nnn(C)c4c3)c12 [Compound 3133, 4-Methoxy-5-(1-methyl-1H-benzo[d][1,2,3]triazol-6-yl)-N-(2-oxaspiro[3.5]nonan-7-yl)-7H-pyrrolo[2,3-d]pyrimidin-2-amine]	1.1 nM
